Patent publication US20120141539A1, “METHODS FOR MODULATING TOLL-LIKE RECEPTOR MEDIATED ACTIVATION OF CELLS OF THE INNATE SYSTEM BY MODULATING XBP-1 ACTIVITY” (PRESIDENT AND FELLOWS OF HARVARD COLLEGE, priority 2009, published 2012)

Legend:
[1] = test system: XBP-1 mRNA splicing; assay: XBP-1 splicing assay in J774 macrophages; type: cell-based, mouse; conditions: for effect of inhibitor on LPS-induced XBP-1 splicing: LPS stimulation
[2] = test system: IFNβ; conditions: macrophage cell line; J. Smith et al. 2008; cited from earlier work
[3] = test system: XBP-1 mRNA splicing; assay: XBP-1 splicing in primary macrophages; type: cell-based, mouse
[4] = test system: CHOP, BiP, Erdj4 and PDI expression; assay: ER-stress target gene expression (quantitative RT-PCR) in J774 macrophages; type: cell-based, mouse; conditions: for induction of the classic ER stress downstream target genes CHOP and BiP: J774 macrophages stimulated with the substance
Experimental: (§1) Total RNA was prepared using Trizol (Invitrogen) and cDNA synthesis with High capacity cDNA Reverse transcription kit purchased from Applied Biosystems. Quantitative RT-PCR was performed employing SYBR green fluorescent reagent on a Mx3005P® QPCR System from Strategene. The relative amounts of mRNA were calculated from the values of comparative threshold cycle by using β-actin as control.
(§2) The ability of TLRs to activate the three branches of the ER stress response was tested. J774 macrophages were stimulated with the TLR4 and TLR2 agonists, LPS and Pam3CSK4, and IRE1α, PERK and ATF6 activation were analyzed. ATF6 activation was tested by monitoring the liberation of its cleaved fragment, and PERK and IRE1α activation by examining their phosphorylation status. […] To further examine the effects of TLR signaling on the classical. ER stress response, cells were stimulated with tunicamycin (TM), a potent pharmacologic ER-stress inducer, in the presence or absence of LPS. […] Therefore, TLRs trigger a biased ER-stress response by activating IRE1 while inhibiting the PERK and ATF6 pathways.

[5] = test system: ATF6; assay: ATF6 activation (liberation of cleaved fragment) in J774 macrophages; type: cell-based, mouse; conditions: for activation of ATF6 (cleaved fragment): J774 macrophages stimulated with the substance
Experimental: (§3) Total cell extracts were loaded on SDS-PAGE for separation and transferred to PDVF membranes. For Western blot the following antibodies were used: anti-XBP-1s (Biolegend), anti-phospho PERK, IRE1 and phospho-JNK (Cell Signaling), ATF4, HSP90, IkappaBβ and CHOP (Santa Cruz Biotechnology), anti-ATF6α and anti proIL-1β.
as §2

[6] = test system: PERK; assay: PERK activation (phosphorylation status) in J774 macrophages; type: cell-based, mouse; conditions: J774 macrophages stimulated with the substance
Experimental: as §3, §2

[7] = test system: CHOP, PDI, WSF1 expression; assay: ER-stress related gene expression in primary macrophages; type: cell-based, mouse
[8] = test system: IRE1α; assay: IRE1α activation (phosphorylation status, immunoblot) in J774 macrophages; type: cell-based, mouse; conditions: J774 macrophages stimulated with the substance
Experimental: as §3, §2

[9] = test system: IL-6; assay: IL-6 production by LPS stimulated macrophages under ER stress; type: cell-based, mouse
[10] = test system: ISG15; assay: ISG15 production by LPS stimulated macrophages under ER stress; type: cell-based, mouse; conditions: cells simultaneously ER-stressed with TM
Experimental: as §1
Therefore, it was determined whether augmenting this pathway through pharmacologic induction of an ER stress response would enhance the natural response to microbial products. […] Importantly, this finding was confirmed in primary WT and XBP-1Δ macrophages that were left untreated or pre-treated for 12 h with a low dose of TM and then stimulated with LPS for 3 h.

[11] = J774 macrophages, co-treatment with TM

Compound: c1ccc2c(c1)[I+]c1ccccc1-2 [DPI, diphenyleneiodonium chloride]
- effect of inhibitor on LPS-induced XBP-1 splicing [1]: abolished

Compound: COc1cc(C(C)=O)ccc1O [apocynin]
- effect of inhibitor on LPS-induced XBP-1 splicing [1]: abolished

Compound: C/C=C(/C)C(=O)O[C@H]1C(C)=C2[C@H]([C@@H]1OC(=O)CCCCCCC)[C@@](C)(OC(C)=O)C[C@H](OC(=O)CCC)[C@@]1(O)[C@H]2OC(=O)[C@@]1(C)O [thapsigargin]
- IFNβ production upon stimulation with LPS [2]: increased IFNβ production

Compound: FSL1
- XBP-1 splicing in TLR2 deficient macrophages [3]: did not activate XBP-1 splicing

Compound: Pam3CSK4
- induction of the classic ER stress downstream target genes CHOP and BiP [4]: nor induction of the classic ER stress downstream target genes, CHOP and BiP, was observed
- activation of ATF6 (cleaved fragment) [5]: neither activation of ATF6 or PERK
- XBP-1 splicing in TLR2 deficient macrophages [3]: did not activate XBP-1 splicing
- activation of PERK (phosphorylation status) [6]: neither activation of ATF6 or PERK
- TLR2 dampening of the ER-stress response: dependence on MyD88 ([7]; primary macrophages from MyD88 deficient mice): MyD88 dependent
- activation of IRE1α (slower migrating phosphorylated species) [8]: Clear activation

Compound: lipopolysaccharide [LPS]
- splicing of XBP-1 mRNA and production of XBP-1s protein ([1]; J774 macrophages, time after stimulation): detected as early as 3 hours
- expression of the XBP-1 target genes Erdj4 or PDI ([4]; J774 macrophages): did not induce
- induction of the classic ER stress downstream target genes CHOP and BiP [4]: nor induction of the classic ER stress downstream target genes, CHOP and BiP, was observed
- effect of co-treatment on TM induction of mRNAs including CHOP, PDI and Erdj4 [4, 11]: dramatically repressed
- classic ER-stress response as measured by CHOP, BiP, Erdj4 and PDI expression ([4]; J774 macrophages, experiment with or without TM): did not induce a classic ER-stress response
- activation of ATF6 (cleaved fragment) [5]: neither activation of ATF6 or PERK
- effect of co-treatment on proteolytic processing of ATF6α by TM [5, 11]: dramatically repressed
- activation of XBP-1 in TLR4 mutant macrophages ([3]; macrophages from mice carrying a mutation in the signaling domain of TLR4): did not activate XBP-1
- effect on TM-induced XBP-1 splicing ([3]; macrophages, TM plus LPS): increased
- activation of XBP-1 in wild type primary macrophages ([3]; primary macrophages from wild type (WT) mice): observed
- activation of PERK (phosphorylation status) [6]: neither activation of ATF6 or PERK
- induction of classic ER-stress related genes such as CHOP or PDI ([7]; XBP-1Δ macrophages or WT macrophages): no induction
- activation of IRE1α (slower migrating phosphorylated species) [8]: Clear activation

Compound: tunicamycin [TM]
- amount of IL-6 produced by LPS stimulated macrophages ([9]; cells simultaneously ER-stressed with TM): dramatically and synergistically increased
- IL-6 production in primary WT macrophages ([9]; pre-treated 12 h with low dose of TM, then LPS 3 h): augmented IL-6 production
- activation of ATF6 (cleaved fragment) [5]: induced activation of all three branches
- amount of ISG15 produced by LPS stimulated macrophages [10]: dramatically and synergistically increased
- activation of PERK (phosphorylation status) [6]: induced activation of all three branches
- induction of PDI and WSF1 in XBP-1Δ macrophages ([7]; XBP-1Δ macrophages versus WT): reduced
- activation of IRE1α (slower migrating phosphorylated species) [8]: induced activation of all three branches
